Tests used:
MDR1 = test: in vitro; conditions: human, Caco-2, PappBA, Caco-2, 2 μM
Experimental: (§1) Caco-2, MDCK and MDCK-MRP2 cells were donated by Prof. Yan Xie and Yueming Ma from Shanghai University of Traditional Chinese Medicine. The cells were grown in culture dishes (Corning® Costar, Cambridge, MA, USA) using DMEM supplemented with 10% FBS, 1% NEAA and 1% penicillin-streptomycin solution. The cells were cultured in 5% CO2 and […] with 90% relative humidity at 37°C. The medium was replaced every other day during incubation. The cells were passaged every 3–4 days between 70 and 80% confluence at a 1:5 split ratio using 0.25% trypsin-EDTA. For the transport experiments, the cells from passages between 30 and 45 were seeded at 1 × 10^5 cells/cm^2 onto permeable polycarbonate inserts (0.45 μm pore size, seeding surface of 0.6 cm^2, Millipore, MA, USA) in 24-well plastic plates. The media in the culture plates were changed every other day for the first week after seeding and were replaced daily afterward. […] The cells were used for the transport experiments 21–28 (Caco-2) or 5–7 (MDCK and MDCK-MRP2) days after seeding, and only monolayers with a TEER-value above 420 Ω cm^2 were used during the studies.
(§2) The apical (AP) and basolateral (BL) sides are typical of polarized Caco-2, MDCK and MDCK-MRP2 epithelial cells. Before the experiments, the polarized cell monolayers were washed twice with warm HBSS solution and subsequently preincubated (37°C, 30 min). Afterward, HBSS solution on both sides of the cell monolayers was removed using a mini desktop vacuum pump. […] The final DMSO concentration in the HBSS or drug mixture was below 0.5%. The monolayers were incubated at 37°C, and 100 μL samples were taken at 30, 60, 90, and 120 min from the acceptor compartment and immediately replaced with the same volume of prewarmed fresh blank HBSS. TEER measurements for assessing the membrane integrity took place before and after the experiments.
(§3) The apparent permeability coefficients (Papp) and ER were calculated as Equations (2) and (3): […]
(§4) where dQ/dt is the steady-state flux, A is the membrane surface area, and C0 is the initial drug concentration in the donor compartment. PappBA is the Papp-value measured in BL to AP direction and PappAB is the Papp-value measured in AP to BL direction. It indicated the involvement of an active transport process when the ER-value is above 1.5 (Hubatsch et al., [2007]).

OATs = test: in vitro; conditions: human, Caco-2, PappBA, Caco-2, 2 μM, + Cimetidine 0.05 mM (OATs)
Experimental: as §1, §2, §3, §4

Caco-2 cell monolayers = test: in vitro
Experimental: as §1, §2, §3, §4

OATPs = test: in vitro; conditions: human, Caco-2, PappAB
Experimental: as §1, §2, §3, §4

PEPT1 = test: in vitro; conditions: human, Caco-2, PappAB
Experimental: as §1, §2, §3, §4

MRP2 = test: in vitro; conditions: human, Caco-2, PappAB
Experimental: as §1, §2, §3, §4

in vitro = test: in vitro
Experimental: as §1, §2, §3, §4

Na+/K+-ATPase = test: in vitro; conditions: human
Experimental: as §1, §2, §3, §4

BCRP = test: in vitro; conditions: human, Caco-2, PappAB
Experimental: as §1, §2, §3, §4

[1] = tested on: ATP (adenosine triphosphate); test: in vitro; conditions: human, Caco-2, PappAB
Experimental: as §1, §2, §3, §4

MDCK cell monolayers = test: in vitro
Experimental: as §1, §2, §3, §4

[2] = Caco-2, 2 μM, + Apigenin 0.025 mM (BCRP)
[3] = Caco-2, 2 μM, + ES 0.05 mM (OATPs)
[4] = Caco-2, 2 μM, + Gly-Sar 10 mM (PEPT1)
[5] = Caco-2, 2 μM, + Ko143 0.01 mM (BCRP)
[6] = Caco-2, 2 μM, + MK571 0.05 mM (MRP2)
[7] = Caco-2, 2 μM, + NaN3 10 mM (ATP)
[8] = Caco-2, 2 μM, + Phloretin 0.3 mM (MCTs)
[9] = Caco-2, 2 μM, + Phloridzin 0.5 mM (SGLT1)
[10] = Caco-2, 2 μM, + Probenecid 0.2 mM (MRP2)
[11] = Caco-2, 2 μM, + TEA 5 mM (OCTs/OCTNs)
[12] = Caco-2, 2 μM, Control (no inhibitor or substrate)

`COc1ccc2c(c1)[nH]c1c(C)nccc12` [Harmine] gave a Papp B→A (MDR1; + Quinidine 0.1 mM (MDR1)) of 29 ± 3.96 ×10⁻⁶ cm/s, a Papp B→A (MDR1; + Verapamil 0.1 mM (MDR1)) of 28.5 ± 3.77 ×10⁻⁶ cm/s and a Papp B→A (OATs) of 27.6 ± 1.54 ×10⁻⁶ cm/s. The PappAB (Caco-2 cell monolayers; Caco-2, 2 μM, 4°C) was 1.58 ± 0.57 1 × 10^−6 cm/s, the Modulatory effect (Caco-2 cell monolayers; [2]) was “−” and the PappBA (Caco-2 cell monolayers; [2]) was 28.40 ± 4.27 1 × 10^−6 cm/s. The Modulatory effect (Caco-2 cell monolayers; Caco-2, 2 μM, + Cimetidine 0.05 mM (OATs)) was “−”, the Modulatory effect (Caco-2 cell monolayers; [3]) was “+” and the PappAB (Caco-2 cell monolayers; [3]) was 14.64 ± 1.31 1 × 10^−6 cm/s. For the same compound, the PappBA (Caco-2 cell monolayers; [3]) was 28.43 ± 1.89 1 × 10^−6 cm/s, the Modulatory effect (Caco-2 cell monolayers; [4]) was “−” and the PappBA (Caco-2 cell monolayers; [4]) was 27.86 ± 1.96 1 × 10^−6 cm/s. The Modulatory effect (Caco-2 cell monolayers; [5]) was “−”, the PappBA (Caco-2 cell monolayers; [5]) was 27.96 ± 3.86 1 × 10^−6 cm/s and the Modulatory effect (Caco-2 cell monolayers; [6]) was “+”. The PappBA (Caco-2 cell monolayers; [6]) was 29.36 ± 2.73 1 × 10^−6 cm/s, the Modulatory effect (Caco-2 cell monolayers; [7]) was “+” and the PappBA (Caco-2 cell monolayers; [7]) was 27.94 ± 1.76 1 × 10^−6 cm/s. The Modulatory effect (Caco-2 cell monolayers; [8]) was “−”, the PappBA (Caco-2 cell monolayers; [8]) was 27.37 ± 2.13 1 × 10^−6 cm/s and the Modulatory effect (Caco-2 cell monolayers; [9]) was “−”. For the same compound, the PappBA (Caco-2 cell monolayers; [9]) was 29.39 ± 1.30 1 × 10^−6 cm/s, the Modulatory effect (Caco-2 cell monolayers; [10]) was “+” and the PappBA (Caco-2 cell monolayers; [10]) was 27.93 ± 2.33 1 × 10^−6 cm/s. The Modulatory effect (Caco-2 cell monolayers; Caco-2, 2 μM, + Quinidine 0.1 mM (MDR1)) was “−”, the Modulatory effect (Caco-2 cell monolayers; Caco-2, 2 μM, + Sodium vanadate 0.05 mM (Na^+)) was “+” and the Modulatory effect (Caco-2 cell monolayers; [11]) was “+”. For the same compound, the PappBA (Caco-2 cell monolayers; [11]) was 28.05 ± 1.20 1 × 10^−6 cm/s, the Modulatory effect (Caco-2 cell monolayers; Caco-2, 2 μM, + Verapamil 0.1 mM (MDR1)) was “−” and the PappAB (Caco-2 cell monolayers; [12]) was 18.52 ± 2.06 1 × 10^−6 cm/s. The PappBA (Caco-2 cell monolayers; [12]) was 29.40 ± 1.38 1 × 10^−6 cm/s, the PappBA (Caco-2 cell monolayers; Caco-2, 2 μM, Control (pH 7.4, 37°C, without EDTA)) was 29.34 ± 1.21 1 × 10^−6 cm/s and the PappBA (Caco-2 cell monolayers; Caco-2, 2 μM, with EDTA 5 mM) was 29.67 ± 2.22 1 × 10^−6 cm/s. For the same compound, the “increase of PappAB” value (Caco-2 cell monolayers; Caco-2, + MK571 vs control) was 1.62 folds, the “increase of PappAB” value (Caco-2 cell monolayers; Caco-2, + probenecid vs control) was 1.27 folds and the “ER-values at the tested concentrations” value (Caco-2 cell monolayers; Caco-2 and MDCK, 1, 2, and 5 μM) was over 1.5. For the same compound, the PappAB (Caco-2 cell monolayers; human, Caco-2) was 24.11 ± 2.53^* 1 × 10^−6 cm/s, the PappAB (Caco-2 cell monolayers; human, Caco-2, pH 7.4) was 18.78 ± 1.26 1 × 10^−6 cm/s and the Papp A→B (OATPs) was 14.6 ± 1.31 ×10⁻⁶ cm/s. For the same compound, the Papp A→B (PEPT1) was 18.3 ± 1.28 ×10⁻⁶ cm/s, the Papp A→B (MRP2) was 29.9 ± 2.14 ×10⁻⁶ cm/s and the Papp A→B (in vitro; dog, MDCK, PappAB, initial concentration 1 μM) was 3.7 ± 0.14 ×10⁻⁶ cm/s. It also gave a Papp A→B (in vitro; dog, MDCK, PappAB, initial concentration 2 μM) of 4.6 ± 0.25 ×10⁻⁶ cm/s, a Papp A→B (in vitro; dog, MDCK, PappAB, initial concentration 5 μM) of 7.11 ± 0.89 ×10⁻⁶ cm/s and a Papp B→A (in vitro; dog, MDCK, PappBA, initial concentration 1 μM) of 5.81 ± 0.19 ×10⁻⁶ cm/s. For the same compound, the Papp B→A (in vitro; dog, MDCK, PappBA, initial concentration 2 μM) was 7.32 ± 0.19 ×10⁻⁶ cm/s, the Papp B→A (in vitro; dog, MDCK, PappBA, initial concentration 5 μM) was 11.6 ± 0.15 ×10⁻⁶ cm/s and the Papp A→B (in vitro; dog, MDCK, pH 5.5, PappAB, 2 μM, pH 5.5) was 2.24 ± 0.29 ×10⁻⁶ cm/s. The Papp B→A (in vitro; dog, MDCK, pH 5.5, PappBA, 2 μM, pH 5.5) was 3.42 ± 0.48 ×10⁻⁶ cm/s, the Papp A→B (in vitro; human, Caco-2, PappAB, Caco-2, 2 μM, 4°C) was 1.58 ± 0.57 ×10⁻⁶ cm/s and the Papp A→B (in vitro; human, Caco-2, PappAB, Caco-2, initial concentration 1 μM) was 15.1 ± 0.73 ×10⁻⁶ cm/s. For the same compound, the Papp A→B (in vitro; human, Caco-2, PappAB, Caco-2, initial concentration 2 μM) was 18.8 ± 1.26 ×10⁻⁶ cm/s, the Papp A→B (in vitro; human, Caco-2, PappAB, Caco-2, initial concentration 5 μM) was 31.1 ± 1.42 ×10⁻⁶ cm/s and the Papp B→A (in vitro; human, Caco-2, PappBA, Caco-2, 2 μM, 4°C) was 2.41 ± 0.85 ×10⁻⁶ cm/s. The Papp B→A (in vitro; human, Caco-2, PappBA, Caco-2, initial concentration 1 μM) was 22.8 ± 0.25 ×10⁻⁶ cm/s, the Papp B→A (in vitro; human, Caco-2, PappBA, Caco-2, initial concentration 2 μM) was 29.3 ± 1.21 ×10⁻⁶ cm/s and the Papp B→A (in vitro; human, Caco-2, PappBA, Caco-2, initial concentration 5 μM) was 48.3 ± 2.81 ×10⁻⁶ cm/s. It also gave a Papp A→B (in vitro; human, Caco-2, pH 5.5, PappAB, Caco-2, 2 μM, pH 5.5) of 5.27 ± 0.29 ×10⁻⁶ cm/s, a Papp B→A (in vitro; human, Caco-2, pH 5.5, PappBA, Caco-2, 2 μM, pH 5.5) of 4.17 ± 1.03 ×10⁻⁶ cm/s and a Papp A→B (Na+/K+-ATPase; Caco-2, PappAB) of 13.1 ± 0.93 ×10⁻⁶ cm/s. For the same compound, the Papp B→A (Na+/K+-ATPase; Caco-2, PappBA, Caco-2, 2 μM, + Sodium vanadate 0.05 mM (Na^+)) was 26.2 ± 1.78 ×10⁻⁶ cm/s, the Papp A→B (BCRP) was 19 ± 3.67 ×10⁻⁶ cm/s and the Papp A→B [1] was 14.1 ± 0.39 ×10⁻⁶ cm/s. For the same compound, the PappAB (MDCK cell monolayers; 2 μM, 4°C) was 1.85 ± 0.55^*** 1 × 10^−6 cm/s, the PappAB (MDCK cell monolayers; 2 μM, Control (pH 7.4, 37°C, without EDTA)) was 4.60 ± 0.25 1 × 10^−6 cm/s and the PappAB (MDCK cell monolayers; 2 μM, with EDTA 5 mM) was 7.47 ± 1.31^* 1 × 10^−6 cm/s. The PappBA (MDCK cell monolayers; 2 μM, with EDTA 5 mM) was 8.98 ± 0.90 1 × 10^−6 cm/s, the PappAB (MDCK cell monolayers; 2 μM, with EDTA 5 mM, listed as harmine) was 7.47 ± 1.31 1 × 10^−6 cm/s and the PappBA (MDCK cell monolayers; dog, pH 7.4) was 7.32 ± 0.19 1 × 10^−6 cm/s.

Reference: article PMC5566973 (Frontiers in Pharmacology, 2017)
